Reference: PubChem BioAssay AID248 (DTP/NCI, 2004)
Values joined by “and” are separate entries in the source; they are usually repeats but may differ in a detail not shown here. Equal entries are not always repeated. Toxic doses and inconclusive results are not listed. Rule as the data show it: active = T/C of 150% or more; inactive = T/C below 125%.

System: L1210 leukemia ip in BDF1 mice, survival T/C
Assay: NCI In Vivo Anticancer Drug Screen. Data for tumor model L1210 Leukemia (intraperitoneal) in B6D2F1 (BDF1) mice
Conditions: endpoint: mean survival time, higher = longer survival
Method in brief: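 Each compound was tested against a transplantable tumor grown in mice. The endpoint was survival, with treated animals benchmarked against vehicle controls as a simple ratio.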

[1] = dose: 100.0 mg/kg/injection, schedule: Q04DX002 (ip), vehicle: Klucel (hydroxypropylcellulose) (HPC)
[2] = dose: 200.0 mg/kg/injection, schedule: Q04DX002 (ip), vehicle: Klucel (hydroxypropylcellulose) (HPC)
[3] = dose: 400.0 mg/kg/injection, schedule: Q04DX002 (ip), vehicle: Klucel (hydroxypropylcellulose) (HPC)
[4] = dose: 100.0 mg/kg/injection, schedule: Q01DX001 (ip), vehicle: saline
[5] = dose: 100.0 mg/kg/injection, schedule: Q01DX009 (ip), vehicle: saline with Tween-80
[6] = dose: 100.0 mg/kg/injection, schedule: Q04DX003 (ip), vehicle: saline with Tween-80
[7] = dose: 200.0 mg/kg/injection, schedule: Q01DX001 (ip), vehicle: saline
[8] = dose: 200.0 mg/kg/injection, schedule: Q01DX009 (ip), vehicle: saline with Tween-80
[9] = dose: 200.0 mg/kg/injection, schedule: Q04DX003 (ip), vehicle: saline with Tween-80
[10] = dose: 400.0 mg/kg/injection, schedule: Q01DX001 (ip), vehicle: saline
[11] = dose: 400.0 mg/kg/injection, schedule: Q04DX003 (ip), vehicle: saline with Tween-80
[12] = dose: 100.0 mg/kg/injection, schedule: Q01DX001 (ip), vehicle: other
[13] = dose: 100.0 mg/kg/injection, schedule: Q04DX003 (ip), vehicle: Klucel (hydroxypropylcellulose) (HPC)
[14] = dose: 200.0 mg/kg/injection, schedule: Q01DX001 (ip), vehicle: other
[15] = dose: 200.0 mg/kg/injection, schedule: Q04DX003 (ip), vehicle: Klucel (hydroxypropylcellulose) (HPC)
[16] = dose: 400.0 mg/kg/injection, schedule: Q04DX003 (ip), vehicle: Klucel (hydroxypropylcellulose) (HPC)
[17] = dose: 100.0 mg/kg/injection, schedule: Q04DX003 (ip), vehicle: saline
[18] = dose: 200.0 mg/kg/injection, schedule: Q04DX003 (ip), vehicle: saline
[19] = dose: 400.0 mg/kg/injection, schedule: Q04DX003 (ip), vehicle: saline
[20] = dose: 100.0 mg/kg/injection, schedule: Q01DX009 (ip), vehicle: Klucel (hydroxypropylcellulose) (HPC)
[21] = dose: 200.0 mg/kg/injection, schedule: Q01DX009 (ip), vehicle: Klucel (hydroxypropylcellulose) (HPC)
[22] = dose: 6.25 mg/kg/injection, schedule: Q01DX009 (ip), vehicle: Klucel (hydroxypropylcellulose) (HPC)
[23] = dose: 12.5 mg/kg/injection, schedule: Q01DX009 (ip), vehicle: Klucel (hydroxypropylcellulose) (HPC)
[24] = dose: 100.0 mg/kg/injection, schedule: Q01DX001 (ip), vehicle: carboxymethylcellulose (CMC)
[25] = dose: 200.0 mg/kg/injection, schedule: Q01DX001 (ip), vehicle: carboxymethylcellulose (CMC)
[26] = dose: 400.0 mg/kg/injection, schedule: Q01DX001 (ip), vehicle: carboxymethylcellulose (CMC)
[27] = dose: 50.0 mg/kg/injection, schedule: Q04DX002 (ip), vehicle: saline
[28] = dose: 400.0 mg/kg/injection, schedule: Q01DX009 (ip), vehicle: Klucel (hydroxypropylcellulose) (HPC)
[29] = dose: 50.0 mg/kg/injection, schedule: Q01DX001 (ip), vehicle: saline
[30] = dose: 5.0 mg/kg/injection, schedule: Q01DX001 (ip), vehicle: saline
[31] = dose: 10.0 mg/kg/injection, schedule: Q01DX001 (ip), vehicle: saline

Measured: T/C

C=CCON(CC=C)CC=C
inactive: [1] 102 % of control | [2] 102 % of control | [3] 94 % of control

O=C(O)C1C2CC3C(OC(=O)C31)C2Br (centres undefined)
inactive: [4] 104 % of control | [5] 91 % of control | [6] 91 % of control | [7] 94 % of control | [8] 96 % of control | [9] 100 % of control | [10] 97 % of control | dose: 400.0 mg/kg/injection, schedule: Q01DX009 (ip), vehicle: saline with Tween-80 91 % of control | [11] 104 % of control

Nc1ccc(S(=O)(=O)c2ccc(N)cc2)cc1
inactive: [12] 100 % of control | [13] 96 % of control | [14] 97 % of control | [15] 101 % of control | dose: 400.0 mg/kg/injection, schedule: Q01DX001 (ip), vehicle: other 107 % of control | [16] 101 % of control

COC(=O)c1cc(=O)c2c(Cl)cccc2[nH]1
inactive: [17] 96 % of control | [18] 110 % of control | [19] 95 % of control

C[C@]12CC[C@@H]3c4ccc(O)c([N+](=O)[O-])c4CC[C@H]3[C@@H]1CCC2=O
inactive: [20] 97 % of control | [21] 92 % of control

O=C(Nc1ccc(F)c(Cl)c1)OCC1CCCO1 (centres undefined)
inactive: [22] 92 % of control | [23] 89 % of control | [13] 94 % of control | [15] 89 % of control

CCOCC(=O)CC(C)(C)C
inactive: dose: 50.0 mg/kg/injection, schedule: Q01DX009 (ip), vehicle: saline with Tween-80 92 % of control | [5] 92 % of control | [8] 103 % of control

O=C(NCCCCCCNC(=O)NS(=O)(=O)c1ccccc1)NS(=O)(=O)c1ccccc1
inactive: dose: 50.0 mg/kg/injection, schedule: Q01DX001 (ip), vehicle: carboxymethylcellulose (CMC) 119 % of control | [24] 102 % of control | [25] 107 % of control | [26] 105 % of control

CCN(CC)C(=O)O/N=C(/C)c1ccccc1
inactive: [12] 96 % of control | [14] 91 % of control

NC(=O)Cc1ccc(O)cc1
inactive: dose: 12.5 mg/kg/injection, schedule: Q04DX002 (ip), vehicle: saline with Tween-80 98 % of control | dose: 25.0 mg/kg/injection, schedule: Q04DX002 (ip), vehicle: saline with Tween-80 107 % of control | dose: 50.0 mg/kg/injection, schedule: Q04DX002 (ip), vehicle: saline with Tween-80 93 % of control and 105 % of control | [27] 113 % of control | dose: 100.0 mg/kg/injection, schedule: Q04DX002 (ip), vehicle: saline with Tween-80 98 % of control and 101 % of control | dose: 200.0 mg/kg/injection, schedule: Q04DX002 (ip), vehicle: saline with Tween-80 96 % of control and 98 % of control | dose: 200.0 mg/kg/injection, schedule: Q04DX002 (ip), vehicle: saline 113 % of control | dose: 400.0 mg/kg/injection, schedule: Q04DX002 (ip), vehicle: saline with Tween-80 101 % of control

BrC(c1ccccc1)C(Br)[n+]1ccccc1 (centres undefined)
inactive: dose: 75.0 mg/kg/injection, schedule: Q01DX001 (ip), vehicle: other 107 % of control

NC(=O)Cc1ccccc1N
inactive: dose: 100.0 mg/kg/injection, schedule: Q01DX001 (ip), vehicle: Klucel (hydroxypropylcellulose) (HPC) 98 % of control | dose: 200.0 mg/kg/injection, schedule: Q01DX001 (ip), vehicle: Klucel (hydroxypropylcellulose) (HPC) 114 % of control | dose: 400.0 mg/kg/injection, schedule: Q01DX001 (ip), vehicle: Klucel (hydroxypropylcellulose) (HPC) 98 % of control

Cc1ccc(C)c(NC(=O)Oc2ccc(Cl)c(C)c2)c1
inactive: [1] 102 % of control | [2] 105 % of control | [3] 108 % of control

CC#C[P+](Cc1ccccc1)(c1ccccc1)c1ccccc1
inactive: dose: 9.5 mg/kg/injection, schedule: Q01DX001 (ip), vehicle: saline 108 % of control | dose: 19.0 mg/kg/injection, schedule: Q01DX001 (ip), vehicle: saline 117 % of control

CC(=O)CC(=O)Nc1ccc(Cc2ccccc2)cc1
inactive: [4] 93 % of control | [7] 94 % of control | [10] 109 % of control

C=CCN(CC=C)C(=O)C(C)O (centres undefined)
inactive: [6] 103 % of control | [9] 103 % of control | [11] 98 % of control

CN(C)N=Nc1ccc([N+](=O)[O-])cc1C(=O)O
inactive: dose: 25.0 mg/kg/injection, schedule: Q04DX003 (ip), vehicle: other 93 % of control | dose: 50.0 mg/kg/injection, schedule: Q04DX003 (ip), vehicle: other 98 % of control | [20] 100 % of control | dose: 100.0 mg/kg/injection, schedule: Q04DX003 (ip), vehicle: other 98 % of control | [21] 103 % of control | dose: 200.0 mg/kg/injection, schedule: Q04DX003 (ip), vehicle: other 101 % of control | [28] 110 % of control | dose: 400.0 mg/kg/injection, schedule: Q04DX003 (ip), vehicle: other 98 % of control

Nc1cncnc1
inactive: [29] 112 % of control | [4] 107 % of control | [7] 98 % of control | [10] 102 % of control

COc1ccccc1NS(=O)(=O)c1ccccc1
inactive: [24] 92 % of control | [25] 103 % of control | [26] 103 % of control

Cc1cc(C)c(NC(=S)NC(=O)c2cccc3ccccc23)c(C)c1
inactive: [20] 98 % of control | [13] 103 % of control | [21] 106 % of control | [15] 97 % of control | [28] 95 % of control | [16] 103 % of control

C[Si](C)(C)Oc1c(Cl)cc(Cl)cc1Cl
inactive: [6] 102 % of control | [9] 98 % of control | [11] 91 % of control

N#CC(C#N)=Cc1ccsc1
inactive: [22] 102 % of control | [23] 94 % of control | dose: 12.5 mg/kg/injection, schedule: Q04DX003 (ip), vehicle: Klucel (hydroxypropylcellulose) (HPC) 102 % of control | dose: 25.0 mg/kg/injection, schedule: Q01DX009 (ip), vehicle: Klucel (hydroxypropylcellulose) (HPC) 100 % of control | dose: 25.0 mg/kg/injection, schedule: Q04DX003 (ip), vehicle: Klucel (hydroxypropylcellulose) (HPC) 96 % of control

CCCCCC(C)N (centres undefined)
inactive: [30] 101 % of control | [31] 101 % of control | dose: 20.0 mg/kg/injection, schedule: Q01DX001 (ip), vehicle: saline 95 % of control | dose: 40.0 mg/kg/injection, schedule: Q01DX001 (ip), vehicle: saline 103 % of control | dose: 80.0 mg/kg/injection, schedule: Q01DX001 (ip), vehicle: saline 101 % of control

CSc1ccccc1N.[Cl][Cu][Cl]
inactive: [30] 103 % of control | [31] 115 % of control

NC1CCCCCCCC1
inactive: dose: 75.0 mg/kg/injection, schedule: Q01DX001 (ip), vehicle: acetone 95 % of control | dose: 150.0 mg/kg/injection, schedule: Q01DX001 (ip), vehicle: acetone 98 % of control

CC[N+](CC)(CC)CCCNC(=O)C12CC3CC(CC(C3)C1)C2
inactive: dose: 25.0 mg/kg/injection, schedule: Q04DX002 (ip), vehicle: saline 95 % of control | [27] 101 % of control

CCOC(=O)c1ccc[n+]([O-])c1
inactive: [17] 94 % of control | [18] 95 % of control | [19] 94 % of control

CC(=O)SCCCON1C(=O)c2ccccc2C1=O
inactive: [29] 100 % of control | [4] 96 % of control | [7] 102 % of control | [10] 102 % of control

O=C1CCC(c2ccccc2)=NN1
inactive: [13] 93 % of control | [15] 95 % of control | [16] 106 % of control
